Measured values reported in patent US20240057591A1, “ANTIMICROBIAL WET WIPES” (Kimberly-Clark Worldwide, Inc., priority 2021, published 2024).
Marks after values point to notes of the source that are not given here.

Assays:
[1] = tested on: Burkholderia cepacia (ATCC 25416); assay: Reduction of bacterial load by adding CO2 in a pressurized vessel (whipped cream dispenser), plate count after 72 hr; format: cell-based; settings: for Recovered Bacteria, Average CFU/mL, With CO2: 72 hr, 25° C., n = 3
Method: Burkholderia cepacia (ATCC 25416) was grown overnight in 40 mL trypticase soy broth in 250 mL bottle shaken at 100 RPM at 30° C. […] 100 mL of either solution were placed in a whipped cream dispenser (670 mL total volume container), and then different amounts of carbon dioxide (CO2) were injected into the container.
100 mL of each solution were then placed in a 150 mL sterile plastic bottle (untreated control). Both samples were placed on a wrist action shaker for 2 hr at 100 rpm at room temperature (25° C.), and then placed on an orbital shaker for 70 hr at 100 rpm at room temperature (25° C.). The total time each sample was at room temperature (25° C.) was 72 hr. After 72 hr, each sample was plated on trypticase soy agar to enumerate bacterial growth after contact period.

[2] = tested on: Pseudomonas aeruginosa ATCC 9027; assay: Reduction of microorganism load by continuous addition of CO2, plate count after contact time; format: cell-based; settings: 300 psi CO2 continuously, reverse osmosis water, n = 2
Method: (§1) Each microbe was grown in specified growth conditions (Table 7) using 40 mL of broth media in a sterile 250 mL bottle shaken at 100 RPM. Each microbe was subcultured from broth culture to an agar plate and incubated in specified growth conditions (Table 7). 100 μL of bacterial or fungal suspension matching the turbidity of a 0.5 or 1 MacFarland Standard were added to 100 mL of filter-sterilized reverse osmosis water (final concentration approximately 1×10^6 or 5×10^1 CFU/mL). 20 mL of reverse osmosis water solution with bacteria was dispensed to a 25 mL hydrothermal synthesis autoclave reactor vessel (25 mL total volume vessel) attached to a continuous CO2 delivery system. The vessels were left connected to the CO2 delivery system at specific contact times at room temperature (25-27° C.). 20 mL of reverse osmosis water with bacteria and filter sterilized reverse osmosis water (no bacteria) were placed in a 150 mL sterile plastic bottle (untreated controls). The untreated controls were left for the same contact time at room temperature (25-27° C.) as CO2 treated vessels. Each microorganism was plated on specified agar media (Table 7) to enumerate bacteria after contact period. Tables 8-10 show the bacterial load reduction achieved after continuous addition of pressurized gas comprising CO2 to contaminated reverse osmosis water or a contaminated solution of reverse osmosis water and Triton X-100.

[3] = tested on: Staphylococcus aureus ATCC 6538; assay: as above; format: cell-based; settings: 300 psi CO2 continuously, reverse osmosis water, n = 2
Method: as §1

[4] = tested on: Candida albicans ATCC 10231; assay: as above; format: cell-based; settings: 300 psi CO2 continuously, reverse osmosis water, n = 2
Method: as §1

[5] = tested on: Escherichia coli ATCC 8739; assay: as above; format: cell-based; settings: 300 psi CO2 continuously, reverse osmosis water, n = 2
Method: as §1

[6] = tested on: Burkholderia cepacia ATCC 25416; assay: Reduction of bacterial load by continuous addition of CO2, plate count after contact time; format: cell-based; settings: n = 2
Method: as §1, with “100 μL of bacterial or fungal suspension matching the turbidity of a 0.5 or 1 MacFarland Standard were added to 100 mL of filter-sterilized reverse osmosis water (final concentration approximately 1×10^6 or 5×10^1 CFU/mL).” left out

[7] = pH measurements of preservative free wet wipe formulation after addition of CO2 and exposure to 1 atm (FIG. 5); format: physicochemical
Method: FIG. 5 is an exemplary embodiment depicting a graph of pH measurements of 100 mL of preservative free wet wipe formulation after addition of 8.2 g of CO2, and subsequent exposure to 1 atm (20° C.) in accordance with the present disclosure.

## O=C=O [CO2, carbon dioxide]
[1]; 8.2 g of CO2 to 100 mL preservative-free wet wipe formulation, approximately 1 × 10^6 CFU/mL
  Recovered Bacteria, Average CFU/mL, With CO2: <10 CFU/mL
[1]; 8.2 g of CO2 to 100 mL reverse osmosis water, approximately 1 × 10^6 CFU/mL
  Recovered Bacteria, Average CFU/mL, With CO2: 1.1 × 10^3 CFU/mL
[1]; 8.2 g of CO2 to 100 mL reverse osmosis water, approximately 5 × 10^1 CFU/mL
  Recovered Bacteria, Average CFU/mL, With CO2: <10 CFU/mL
[1]; 16.0 g of CO2 to 100 mL reverse osmosis water, approximately 1 × 10^5 CFU/mL
  Recovered Bacteria, Average CFU/mL, With CO2: <10 CFU/mL
[1]; 23.7 g of CO2 to 100 mL reverse osmosis water, approximately 1 × 10^5 CFU/mL
  Recovered Bacteria, Average CFU/mL, With CO2: <10 CFU/mL
[1]; pressurized gas comprising carbon dioxide added to contaminated preservative-free wet wipe formulation
  Microbial growth compared to no added CO2: greatly reduced microbial growth
[1]; pressurized gas comprising carbon dioxide added to contaminated water
  Microbial growth compared to no added CO2: greatly reduced microbial growth
[2]; 2 Hours
  Average Recovered CFU/mL, With CO2: 3.5 × 10^2 CFU/mL
[2]; 4 Hours
  Average Recovered CFU/mL, With CO2: <10 CFU/mL
[2]; 6 Hours
  Average Recovered CFU/mL, With CO2: <10 CFU/mL
[3]; 2 Hours
  Average Recovered CFU/mL, With CO2: 6.0 × 10^2 CFU/mL
[3]; 4 Hours
  Average Recovered CFU/mL, With CO2: 1.3 × 10^2 CFU/mL
[3]; 6 Hours
  Average Recovered CFU/mL, With CO2: <10 CFU/mL
[4]; 2 Hours
  Average Recovered CFU/mL, With CO2: 5.3 × 10^2 CFU/mL
[4]; 4 Hours
  Average Recovered CFU/mL, With CO2: 1.0 × 10^2 CFU/mL
[4]; 6 Hours
  Average Recovered CFU/mL, With CO2: <10 CFU/mL
[5]; 2 Hours
  Average Recovered CFU/mL, With CO2: 1.0 × 10^3 CFU/mL
[5]; 4 Hours
  Average Recovered CFU/mL, With CO2: 2.5 × 10^2 CFU/mL
[5]; 6 Hours
  Average Recovered CFU/mL, With CO2: <10 CFU/mL
[6]; 100 psi CO2 continuously, reverse osmosis water and 0.2% (v/v) Triton X-100, approximately 1.0 × 10^4 inoculum, 15 minutes
  Average Recovered CFU/mL, With CO2: 2.1 × 10^3 CFU/mL
[6]; 100 psi CO2 continuously, reverse osmosis water and 0.2% (v/v) Triton X-100, approximately 1.0 × 10^4 inoculum, 30 minutes
  Average Recovered CFU/mL, With CO2: 1.2 × 10^3 CFU/mL
[6]; 100 psi CO2 continuously, reverse osmosis water and 0.2% (v/v) Triton X-100, approximately 1.0 × 10^4 inoculum, 60 minutes
  Average Recovered CFU/mL, With CO2: 6.3 × 10^2 CFU/mL
[6]; 300 psi CO2 continuously, 20 mL reverse osmosis water, 0.5 hours
  Average Recovered CFU/mL (Standard Deviation), With CO2: 5.0 × 10^5 (1.0 × 10^5) CFU/mL
[6]; 300 psi CO2 continuously, 20 mL reverse osmosis water, 1 hour
  Average Recovered CFU/mL (Standard Deviation), With CO2: 4.5 × 10^5 (2.5 × 10^5) CFU/mL
[6]; 300 psi CO2 continuously, 20 mL reverse osmosis water, 1.5 hours
  Average Recovered CFU/mL (Standard Deviation), With CO2: 5.0 × 10^5 (2.0 × 10^5) CFU/mL
[6]; 300 psi CO2 continuously, 20 mL reverse osmosis water, 2 hours
  Average Recovered CFU/mL (Standard Deviation), With CO2: 3.1 × 10^4 (7.0 × 10^3) CFU/mL
[6]; 300 psi CO2 continuously, 20 mL reverse osmosis water, 2.5 hours
  Average Recovered CFU/mL (Standard Deviation), With CO2: 8.0 × 10^3 (2.0 × 10^3) CFU/mL
[6]; 300 psi CO2 continuously, 20 mL reverse osmosis water, 3 hours
  Average Recovered CFU/mL (Standard Deviation), With CO2: <1 (n/a) CFU/mL
[6]; 300 psi CO2 continuously, 20 mL reverse osmosis water, 6 hours
  Average Recovered CFU/mL (Standard Deviation), With CO2: <1 (n/a) CFU/mL
[6]; 300 psi CO2 continuously, 20 mL reverse osmosis water, 24 hours
  Average Recovered CFU/mL (Standard Deviation), With CO2: <1 (n/a) CFU/mL
[6]; Table 9: 100 psi CO2 (approx. 0.231 mol/L), reverse osmosis water, 2 hours
  Average Recovered CFU/mL (Standard Deviation), With CO2: 2.3 × 10^4 (1.0 × CFU/mL
[6]; Table 9: 100 psi CO2 (approx. 0.231 mol/L), reverse osmosis water, 4 hours
  Average Recovered CFU/mL (Standard Deviation), With CO2: 1.2 × 10^4 (4.0 × CFU/mL
[6]; Table 9: 100 psi CO2 (approx. 0.231 mol/L), reverse osmosis water, 6 hours
  Average Recovered CFU/mL (Standard Deviation), With CO2: 1.2 × 10^4 (3.5 × CFU/mL
[6]; Table 9: 200 psi CO2 (approx. 0.463 mol/L), reverse osmosis water, 2 hours
  Average Recovered CFU/mL (Standard Deviation), With CO2: 1.2 × 10^3 (1.5 × CFU/mL
[6]; Table 9: 200 psi CO2 (approx. 0.463 mol/L), reverse osmosis water, 4 hours
  Average Recovered CFU/mL (Standard Deviation), With CO2: 1.0 × 10^2 (1.0 × CFU/mL
[6]; Table 9: 200 psi CO2 (approx. 0.463 mol/L), reverse osmosis water, 6 hours
  Average Recovered CFU/mL (Standard Deviation), With CO2: 1.4 × 10^1 (<10) CFU/mL
[6]; Table 9: 300 psi CO2 (approx. 0.694 mol/L), reverse osmosis water, 2 hours
  Average Recovered CFU/mL (Standard Deviation), With CO2: 9.0 × 10^2 (1.0 × CFU/mL
[6]; Table 9: 300 psi CO2 (approx. 0.694 mol/L), reverse osmosis water, 4 hours
  Average Recovered CFU/mL (Standard Deviation), With CO2: 5.0 × 10^1 (5.0 × CFU/mL
[6]; Table 9: 300 psi CO2 (approx. 0.694 mol/L), reverse osmosis water, 6 hours
  Average Recovered CFU/mL (Standard Deviation), With CO2: <10 (n/a) CFU/mL
[6]; Table 10: 300 psi CO2 continuously, reverse osmosis water, 2 Hours
  Average Recovered CFU/mL, With CO2: 1.3 × 10^3 CFU/mL
[6]; Table 10: 300 psi CO2 continuously, reverse osmosis water, 4 Hours
  Average Recovered CFU/mL, With CO2: 2.5 × 10^1 CFU/mL
[6]; Table 10: 300 psi CO2 continuously, reverse osmosis water, 6 Hours
  Average Recovered CFU/mL, With CO2: <10 CFU/mL
[7]; 100 mL preservative free wet wipe formulation after addition of 8.2 g of CO2 (FIG. 5)
  Reduction of pH of wet wipe formulation: approximately 0.20 pH units
[7]; after exposure to atmospheric conditions (1 atm, 20° C.; FIG. 5)
  Dissipation of solubilized CO2 from wet wipe formulation: quickly dissipated
